Test systems include BFU-E; CFU-GM; CFU-Mix.
Holding throughout (experiment): Colony assay of hematopoietic progenitors
Format in all cases: cell-based
What all share (conditions): Homo sapiens, read-out: IC50 for colony formation

Values after ≈ are worked out from the molar mass of the structure shown.

For orientation: IC50 means the concentration that inhibits the measured activity by half. For the molecule `C/C=C1\NC(=O)[C@H]2CSSCC/C=C/[C@H](CC(=O)N[C@H](C(C)C)C(=O)N2)OC(=O)[C@H](C(C)C)NC1=O` [FK228], the IC50 came to 3.1 ng/mL (≈ 5.73 nM) in the experiment with BFU-E, 4.4 ng/mL (≈ 8.14 nM) in the experiment on CFU-GM and 7.8 ng/mL (≈ 14.4 nM) in the experiment on CFU-Mix.

Values taken from PMC5926292 (Japanese Journal of Cancer Research : Gann, 2000).
